Patent US20220274967A1, “BCAT MODULATION” (Icagen, LLC, priority 2019, published 2022)

Experiments:
[1] = test system: Primary human fibroblasts from a patient with propionic acidemia (Coriell #GM00371); experiment: Cell viability (cell Titer-Glo) of propionic acidemia fibroblasts; type: cell-based; conditions: FIG. 1
Description: (§1) Primary human fibroblasts from a patient with propionic acidemia (Coriell #GM00371) were plated in complete media (EMEM, 15% FBS) in a 96-well plate at 10,000 cells/well and incubated overnight at 37° C. at 5% CO2. Compounds were serially diluted initially in DMSO then into serum-free EMEM media. The cells were then washed with D-PBS before addition of the media containing the diluted compound, and were then incubated at 37° C. at 5% CO2 overnight.
Cell viability was also determined with cell Titer-Glo reagent (Promega) by addition of equal volumes of D-PBS and Cell Titer-Glo reagent to cell wells and following manufacturer's recommendations for detection of luminescence signal.

propionyl carnitine = experiment: Propionyl carnitine in conditioned media of propionic acidemia fibroblasts; type: cell-based, human; conditions: 24 hours, increasing concentrations, FIG. 1
Description: could inhibit levels of the downstream metabolite propionyl carnitine, which is found to be elevated in patients with propionic acidemia, by analyzing propionyl carnitine levels in conditioned media in human fibroblasts from a patient with propionic acidemia treated with a dose response of the compound of the disclosure.
as §1
The conditioned media was removed from cells after 24 hours of compound treatment and was diluted 2× with D3-propionyl carnitine internal standard diluted in MS-grade methanol. Plates were sealed and samples were frozen at −80DGC for more than 30 minutes, followed by thawing at room temperature and centrifugation for 10 minutes at 4000 rpm. The samples were then analyzed for propionyl carnitine by LC-LC/MS using TSQ Vantage using a Kinetex 2.6 μm Biphenyl 2.1×50 mm column with Mobile Phase A of 95% (0.1% Formic acid in Water)+5% Water and Mobile Phase B of 95% McOH+5% (0.1% Formic acid in Water).

[2] = Repetitive treatment: body weight and toxicity signs; type: in vivo; conditions: mice, 200 mg/kg PO once a day for 9 days and 3-day recovery
Description: […]. Animals were maintained on a 12 hour light/dark reverse cycle in a temperature- and humidity-controlled room with access to food and water ad libitum. Before the experiment, animals underwent a 7-day acclimation period. All procedures involving mice were approved by the Institutional Animal Care and Use Committee of the University of Arizona and were conducted in accordance with Principles of Laboratory Animal Care (National Institutes of Health Publication 85-23, revised in 1985).
Animals were grouped based on pair matched body weight and received either vehicle (0.5% HPMC K100+0.1 Tween 80, pH=10.0) or a daily dose of compound (200 mg/kg, PO) for 9 days. From day 1 to day 5, all animals were provided with normal diet. On day 6, the diet was switched to a precursor enriched chow (700% isoleucine, valine and threonine enriched, TD. 140829; Envigo) for half of the animals; the other half were still fed with normal diet. On day 9, blood, bladder urine as well as tissue samples (liver, brain, heart, muscle and kidney) were harvested 4 hours after the last dose. Three mice in each treatment/diet group were retained for a 3-day recovery phase observation. On day 12, blood, bladder urine as well as tissue samples (liver, brain, heart, muscle and kidney) were harvested. […] Body weights were measured daily and any abnormal behavior for toxicity signs was recorded.

[3] = test system: branched chain amino acids (BCAA) in plasma; experiment: Repetitive treatment with BCAT2 inhibitor compound: plasma amino acids; type: in vivo; conditions: mice
Description: Male, C57Black/6J mice (6-7 weeks, Jackson Laboratories, Bar Harbor, Me.) were used in all in vivo experiments. Animals were maintained on a 12 hour light/dark reverse cycle in a temperature- and humidity-controlled room with access to food and water ad libitum. Before the experiment, animals underwent a 7-day acclimation period.
All biological samples were stored in −80° C. until analysis. […] In particular, 20 μL of mouse plasma were precipitated with 180 μL acetonitrile containing 5 μg/ml D8-Valine. Samples were vortexed vigorously and centrifuged to remove precipitated protein. 2 μL of supernatant was injected on a Phenomenex Gemini C18 column (4.6 mm×150 mm, 5 μm particle size) for separation under a linear gradient from 2% ACN to 50% ACN in 10 minutes followed by a 7 minute equilibration with 2% ACN.
Animals were grouped based on pair matched body weight and received either vehicle (0.5% HPMC K100+0.1 Tween 80, pH=10.0) or a daily dose of compound (200 mg/kg, PO) for 9 days. From day 1 to day 5, all animals were provided with normal diet. […] On day 9, blood, bladder urine as well as tissue samples (liver, brain, heart, muscle and kidney) were harvested 4 hours after the last dose. Three mice in each treatment/diet group were retained for a 3-day recovery phase observation. On day 12, blood, bladder urine as well as tissue samples (liver, brain, heart, muscle and kidney) were harvested. During the entire study course (day 1 to day 12), mice were able to access food and water freely. Body weights were measured daily and any abnormal behavior for toxicity signs was recorded.

[4] = 200 mg/kg PO for 9 days, normal diet, FIG. 4A
[5] = 200 mg/kg PO, Day 9, precursor-enriched diet, FIG. 4B

Row | Structure (SMILES) | impact on cell viability [1] | propionyl carnitine levels (propionyl carnitine) | abnormal behaviors reflecting toxicities [2] | body weight ([2]; FIG. 3A) | plasma level of Leu [3, 4] | plasma level of Ser [3, 4] | plasma level of Val [3, 4] | levels of BCAAs in plasma, compound vs vehicle [3, 5] | plasma level of leucine [3, 5]
1 | CNC(=O)c1ccc2c(c1)nc(-c1ccccn1)n2C1CCCC(NC(=O)c2ccc(Br)s2)C1 (stereo not drawn) [drawing 84] | little impact | inhibited | – | – | – | – | – | – | –
2 | CNC(=O)c1ccc2c(c1)nc(-c1ccccn1)n2C1CCCC(NC(=O)c2ccc(Br)s2)C1 (stereo not drawn) [drawing 85] | – | – | no obvious abnormal behaviors reflecting toxicities | no significant loss | significantly increased | not | significantly increased | no significant changes | slight but significant decrease
